How the values were obtained:
[1] = system: Swiss albino mice; experiment: Energy and endurance forced swim test (FST) with constant load; assay type: in vivo; settings: for Activity during forced swimming compared to control group (in words): 10 minutes of forced swimming, day 21; for Average Velocity / Distance Travelled (mm) / Fast Swimming Time / Resting Time / Slow Swimming: oral, 21 days, 150 mg/kg (Caffeine 10 mg/kg), 10 min swim on day 21, Mean ± SEM
Method: The efficacy of the compositions LI12522F2, LI89032F3 and LI80020F3 for enhancing energy and endurance was further evaluated in an animal study. […] On day 21, one hour after the treatment the mice were forced to swim with a constant load (10% of its body weight attached to its tail) in an acrylic cylinder filled with water. This test was monitored for 10 minutes using the SMART video tracking system ([…]). Various swimming parameters were recorded and analyzed by smart software. […] Swiss albino mice were acclimatized for 5 days before initiation of the study. Healthy Swiss albino mice were selected and randomly divided (n=6) into different treatment groups. […] On day 21, one hour after the treatment the mice were forced to swim with a constant load (10% of its body weight attached to its tail) in an acrylic cylinder filled with water. This test was monitored for 10 minutes using the SMART video tracking system ([…]). Various swimming parameters were recorded and analyzed by smart software. Measured Swimming parameters include, resting time, slow moving time, fast moving time, total moving time, path length of swimming and average velocity.

[2] = system: Swiss albino mice; experiment: Grip strength measurement (grip strength meter); assay type: in vivo; settings: oral, 150 mg/kg (Caffeine 10 mg/kg), Mean ± SEM
Method: Similarly, after 21 days of treatment, the grip strength of mice was measured by using Grip strength meter (UgoBasile, Italy). Animals were trained and habituated to the experimental environment and conditions for 5 days. Each mice was allowed to grasp the grasping bar and it was pulled back gently in a horizontal plane by tail with gradually increasing force till the pulling force overcomes the grip strength of the animal. The force applied at the moment when the mice leaves its grasp on the grasping bar was recorded as grip strength in grams.
After 21 days of treatment Grip strength of mice was measured by using Grip strength meter (UgoBasile, Italy). Animals were trained and habituated to the experimental environment and conditions for 5 days. Each mice was allowed to grasp the grasping bar and it was pulled back gently in a horizontal plane by tail with gradually increasing force till the pulling force overcomes the grip strength of the animal. The force applied at the moment when the mice leaves its grasp on the grasping bar was recorded as grip strength in grams. Three trials were conducted on each animal and average grip strength was calculated.

Structure (SMILES)	Activity during forced swimming compared to control group (in words) [1]	Average Velocity [1]	Distance Travelled (mm) [1] [mm]	Fast Swimming Time [1] [s]	Resting Time [1] [s]	Slow Swimming [1] [s]	Average Grip Strength measured after 21 Days [2] [grams]
Cn1c(=O)c2c(ncn2C)n(C)c1=O [Caffeine]	more active and energetic	49.80	28740.25	82.16	399.64	92.12	56.07 ± 10.37
C[N+](C)(C)C[C@H](O)CC(=O)[O-] [L-Carnitine]	more active and energetic	44.24	26197.58	67.64	419.52	104.92	39.20 ± 7.51
